Reference: US8153787B2 (priority 2005, dated 2012)
≈ marks a conversion by molar mass, not a printed value. Read-outs that look alike come from different tables or passages of the source.

Assays:
[1] = system: primate polyomavirus (SV40); assay: microbe, parasite or virus in culture; format: cell-based, simian polyomavirus SV40; conditions: for EC50: Polyomavirus sp., BSC-1, in Primates
Orf virus (NZ2) = assay: microbe, parasite or virus in culture; format: cell-based; conditions: Orf virus, HEL, read-out: EC50 Orf virus NZ2
[2] = system: Varicella-Zoster Virus (VZV); assay: microbe, parasite or virus in culture; format: cell-based; conditions: Human alphaherpesvirus 3, HEL
in vitro [3] = conditions: mouse
Vaccinia virus = assay: organism not typed; format: cell-based; conditions: HEL
murine polyomavirus = assay: microbe, parasite or virus in culture; format: cell-based; conditions: for EC50: Alphapolyomavirus muris, UC1, UC1B
in vitro [4] = conditions: human, […]
[5] = system: herpes simplex virus type 2 (HSV-2); assay: microbe, parasite or virus in culture; format: cell-based; conditions: Human alphaherpesvirus 2, HEL, read-out: EC50 HSV-2 (G strain)
in vitro [6] = conditions: African green monkey
[7] = system: Human Cytomegalovirus (HCMV); assay: microbe, parasite or virus in culture; format: cell-based
Cowpox virus (Brighton) = assay: microbe, parasite or virus in culture; format: cell-based; conditions: Cowpox virus, HEL, read-out: EC50 Cowpox virus Brighton
[8] = system: herpes simplex virus type 1 (HSV-1); assay: microbe, parasite or virus in culture; format: cell-based; conditions: Human alphaherpesvirus 1, HEL, read-out: EC50 HSV-1 (Kos strain)
[9] = system: Molluscum contagiosum virus (MCV) clinical isolates; assay: microbe, parasite or virus in culture; format: cell-based; conditions: Keratinocyte
in vitro [10] = conditions: human
HEL cells = conditions: human
HSV-1 (Kos strain) = assay: microbe, parasite or virus in culture; format: cell-based, Herpes simplex virus type 1; conditions: Human alphaherpesvirus 1, HEL
[11] = system: Vaccinia virus (Western Reserve) and recombinant viruses harboring the A314T, A684V or A314T+A684V mutations; format: cell-based
HSB-2 cells = conditions: human
MOLT-3 cells = conditions: human
[12] = system: vaccinia virus (Lederle strain); assay: microbe, parasite or virus in culture; format: cell-based; conditions: Orthopoxvirus vaccinia, HEL
[13] = read-out: antiviral activity (EC50) SV40 PML-1 strain EK
[14] = read-out: antiviral activity (EC50) SV40 PML-2 strain DAR
[15] = read-out: antiviral activity (EC50) SV40 strain A2895
[16] = read-out: EC50 VZV 07/1 strain (HEL cells)
[17] = read-out: EC50 VZV OKA strain (HEL cells)
[18] = read-out: EC50 Vaccinia Virus Lister
[19] = Orthopoxvirus vaccinia, read-out: EC50 Vaccinia Virus Copenhagen
[20] = Orthopoxvirus vaccinia, read-out: EC50 Vaccinia Virus Lederle
[21] = Orthopoxvirus vaccinia, read-out: EC50 Vaccinia Virus WR
[22] = read-out: antiviral activity (EC50) 2PTA2
[23] = read-out: antiviral activity (EC50) LID-1
[24] = read-out: antiviral activity (EC50) MN/RDE Toronto
[25] = read-out: antiviral activity (EC50) PTA
[26] = Human betaherpesvirus 5, AD169, HEL, read-out: EC50 HCMV AD-169 strain (HEL cells)
[27] = Human betaherpesvirus 5, HEL, read-out: EC50 HCMV Davis strain (HEL cells)
[28] = read-out: EC50 VZV YS strain (HEL cells)
[29] = read-out: EC50 VZV YS-R strain (HEL cells)

SMILES: Nc1ncn(C[C@H]2COP(=O)(O)CO2)c(=O)n1 [Compound 11, 1-{[(5S)-2-Hydroxy-2-oxido-1,4,2-dioxaphosphinan-5-yl]methyl}-5-azacytosine]
- selectivity index SV40 PML-1 strain EK [1]: 8
- selectivity index SV40 PML-2 strain DAR [1]: 7
- selectivity index SV40 strain A2895 [1]: 8
- EC50 [1, 13]: 4.6 µg/mL (≈ 17.5 µM)
- EC50 [1, 14]: 5.05 µg/mL (≈ 19.3 µM)
- EC50 [1, 15]: 4.39 µg/mL (≈ 16.7 µM)
- EC50 (Orf virus (NZ2)): 0.09 µg/mL (≈ 0.343 µM)
- EC50 [2, 16]: 50 ng/mL (≈ 0.191 µM)
- EC50 [2, 17]: 80 ng/mL (≈ 0.305 µM)
- CC50 (in vitro [3]): 58.4 µg/mL (≈ 223 µM)
- EC50 (Vaccinia virus; [18]): 1.38 µg/mL (≈ 5.26 µM)
- EC50 (Vaccinia virus; [19]): 1.76 µg/mL (≈ 6.71 µM)
- EC50 (Vaccinia virus; [20]): 3.1 µg/mL (≈ 11.8 µM)
- EC50 (Vaccinia virus; [21]): 2.08 µg/mL (≈ 7.93 µM)
- selectivity index 2PTA2 (murine polyomavirus): 13
- selectivity index LID-1 (murine polyomavirus): 7
- selectivity index MN/RDE Toronto (murine polyomavirus): 17
- selectivity index PTA (murine polyomavirus): 7
- EC50 (murine polyomavirus; [22]): 4.39 µg/mL (≈ 16.7 µM)
- EC50 (murine polyomavirus; [23]): 8.05 µg/mL (≈ 30.7 µM)
- EC50 (murine polyomavirus; [24]): 3.43 µg/mL (≈ 13.1 µM)
- EC50 (murine polyomavirus; [25]): 8.59 µg/mL (≈ 32.8 µM)
- CC50 (in vitro [4]): > 50 µg/mL
- EC50 [5]: 0.58 µg/mL (≈ 2.21 µM)
- CC50 (in vitro [6]): 36.4 µg/mL (≈ 139 µM)
- EC50 [7, 26]: 93 ng/mL (≈ 0.355 µM)
- EC50 [7, 27]: 61 ng/mL (≈ 0.233 µM)
- EC50 (Cowpox virus (Brighton)): 5.64 µg/mL (≈ 21.5 µM)
- EC50 [8]: 0.017 µg/mL (≈ 0.0648 µM)

SMILES: CCCCCCCCCCCCCCCCOCCOP1(=O)CO[C@@H](Cn2cnc(N)nc2=O)CO1 (stereo partly drawn) [Compound 12, hexadecyloxyethyl ester of 1-{[(5S)-2-Hydroxy-2-oxido-1,4,2-dioxaphosphinan-5-yl]methyl}-5-azacytosine]
- selectivity index SV40 PML-1 strain EK [1]: 57.6
- selectivity index SV40 PML-2 strain DAR [1]: 38.7
- selectivity index SV40 strain A2895 [1]: 44.5
- EC50 [1, 13]: 0.15 µg/mL (≈ 0.283 µM)
- EC50 [1, 14]: 0.18 µg/mL (≈ 0.339 µM)
- EC50 [1, 15]: 0.16 µg/mL (≈ 0.302 µM)
- EC50 (Orf virus (NZ2)): < 0.032 µg/mL
- EC50 [2, 16]: < 0.02 ng/mL
- EC50 [2, 17]: < 0.02 ng/mL
- EC50 [2, 28]: < 0.02 ng/mL
- EC50 [2, 29]: < 0.02 ng/mL
- CC50 (in vitro [3]): 10 µg/mL (≈ 18.8 µM)
- EC50 (Vaccinia virus; [18]): < 0.032 µg/mL
- EC50 (Vaccinia virus; [19]): < 0.032 µg/mL
- EC50 (Vaccinia virus; [20]): < 0.032 µg/mL
- EC50 (Vaccinia virus; [21]): 0.072 µg/mL (≈ 0.136 µM)
- selectivity index 2PTA2 (murine polyomavirus): 33.8
- selectivity index LID-1 (murine polyomavirus): 21.3
- selectivity index MN/RDE Toronto (murine polyomavirus): 34.9
- selectivity index PTA (murine polyomavirus): 35.6
- EC50 (murine polyomavirus; [22]): 0.3 µg/mL (≈ 0.565 µM)
- EC50 (murine polyomavirus; [23]): 0.47 µg/mL (≈ 0.886 µM)
- EC50 (murine polyomavirus; [24]): 0.29 µg/mL (≈ 0.547 µM)
- EC50 (murine polyomavirus; [25]): 0.28 µg/mL (≈ 0.528 µM)
- CC50 (in vitro [4]): 6 µg/mL (≈ 11.3 µM)
- EC50 [5]: 0.36 µg/mL (≈ 0.678 µM)
- CC50 (in vitro [6]): 7.1 µg/mL (≈ 13.4 µM)
- EC50 [7, 26]: < 0.02 ng/mL
- EC50 [7, 27]: < 0.02 ng/mL
- EC50 (Cowpox virus (Brighton)): < 0.032 µg/mL
- EC50 [8]: 0.072 µg/mL (≈ 0.136 µM)

SMILES: CCCCCCCCCCCCCCCCCCOP1(=O)CO[C@@H](Cn2cnc(N)nc2=O)CO1 (stereo partly drawn) [Compound 15, octadecyl ester of 1-{[(5S)-2-hydroxy-2-oxido-1,4,2-dioxaphosphinan-5-yl]methyl}-5-azacytosine]
- EC50 [2, 17]: 63 ng/mL (≈ 0.122 µM)
- CC50 (in vitro [4]): > 100 µg/mL
- EC50 [7, 26]: 3.7 ng/mL (≈ 0.00719 µM)
- EC50 [7, 27]: 1.4 ng/mL (≈ 0.00272 µM)

SMILES: Nc1cnn(C[C@@H](CO)OCP(=O)(O)O)c(=O)n1 [HPMP-6-azaC analogue, (S)-1-[3-hydroxy-2-(phosphonomethoxy)propyl]-6-azacytosine]
- EC50 (Orf virus (NZ2)): ≥ 63.8 µg/mL
- EC50 [2, 16]: 18400 ng/mL (≈ 65.7 µM)
- EC50 [2, 17]: 38200 ng/mL (≈ 136 µM)
- EC50 [2, 28]: 42000 ng/mL (≈ 150 µM)
- EC50 [2, 29]: 17000 ng/mL (≈ 60.7 µM)
- EC50 (Vaccinia virus; [18]): ≥ 79.3 µg/mL
- EC50 (Vaccinia virus; [19]): > 100 µg/mL
- EC50 (Vaccinia virus; [20]): ≥ 81.6 µg/mL
- EC50 (Vaccinia virus; [21]): > 100 µg/mL
- CC50 (in vitro [4]): > 50 µg/mL
- EC50 [7, 26]: 30000 ng/mL (≈ 107 µM)
- EC50 [7, 27]: 37300 ng/mL (≈ 133 µM)
- EC50 (Cowpox virus (Brighton)): > 100 µg/mL

SMILES: Nc1ccn(C[C@@H](CO)OCP(=O)(O)O)c(=O)n1 [HPMPC, (S)-1-(3-hydroxy-2-phosphonylmethoxypropyl)cytosine, reference compound]
- EC50 [1, 13]: 5.56 µg/mL (≈ 19.9 µM)
- EC50 [1, 14]: 5.87 µg/mL (≈ 21 µM)
- EC50 [1, 15]: 4.72 µg/mL (≈ 16.9 µM)
- EC50 ([9]; read-out: EC50 MCV 06/02): 0.76 µg/mL (≈ 2.72 µM)
- EC50 ([9]; read-out: EC50 MCV 06/03): 0.55 µg/mL (≈ 1.97 µM)
- EC50 ([9]; read-out: EC50 MCV 06/04): 0.55 µg/mL (≈ 1.97 µM)
- EC50 ([9]; read-out: EC50 MCV 06/06): 0.6 µg/mL (≈ 2.15 µM)
- EC50 (Orf virus (NZ2)): 0.2 µg/mL (≈ 0.716 µM)
- EC50 [2, 16]: 50 ng/mL (≈ 0.179 µM)
- EC50 [2, 17]: 200 ng/mL (≈ 0.716 µM)
- CC50 (in vitro [10]): > 79 µg/mL
- CC50 (in vitro [3]): 84.3 µg/mL (≈ 302 µM)
- EC50 (Vaccinia virus; [18]): 2.45 µg/mL (≈ 8.78 µM)
- EC50 (Vaccinia virus; [19]): 4.35 µg/mL (≈ 15.6 µM)
- EC50 (Vaccinia virus; [20]): 2.43 µg/mL (≈ 8.7 µM)
- EC50 (Vaccinia virus; [21]): 5.82 µg/mL (≈ 20.8 µM)
- Toxicity MCC (microscop) (HEL cells): >79 µg/mL
- EC50 (murine polyomavirus; [22]): 5.78 µg/mL (≈ 20.7 µM)
- EC50 (murine polyomavirus; [23]): 5.89 µg/mL (≈ 21.1 µM)
- EC50 (murine polyomavirus; [24]): 2.76 µg/mL (≈ 9.89 µM)
- EC50 (murine polyomavirus; [25]): 6.54 µg/mL (≈ 23.4 µM)
- CC50 (in vitro [4]): 68.6 µg/mL (≈ 246 µM)
- EC50 (HSV-1 (Kos strain); 2 h, read-out: EC50 HSV-1 (Kos strain), Treatment from 2 h till end of experiment): 0.43 µg/mL (≈ 1.54 µM)
- EC50 (HSV-1 (Kos strain); read-out: EC50 HSV-1 (Kos strain), Pretreatment (−16 hours)): 1 µg/mL (≈ 3.58 µM)
- EC50 (HSV-1 (Kos strain); read-out: EC50 HSV-1 (Kos strain), Treatment 2-4 hours): 2.51 µg/mL (≈ 8.99 µM)
- EC50 (HSV-1 (Kos strain); read-out: EC50 HSV-1 (Kos strain), Treatment 2-6 hours): 1.1 µg/mL (≈ 3.94 µM)
- EC50 (HSV-1 (Kos strain); read-out: EC50 HSV-1 (Kos strain), Treatment 2-8 hours): 1 µg/mL (≈ 3.58 µM)
- EC50 Vaccinia virus (Western Reserve) wild-type [11]: 3.1 µg/mL (≈ 11.1 µM)
- EC50 recombinant vaccinia virus 314 + 684 [11]: 39.5 µg/mL
- EC50 recombinant vaccinia virus 684 [11]: 14.8 µg/mL
- EC50 recombinant vaccinia virus A314T [11]: 22.2 µg/mL
- EC50 [5]: 0.54 µg/mL (≈ 1.93 µM)
- CC50 (in vitro [6]): 79.4 µg/mL (≈ 284 µM)
- EC50 [7, 26]: 200 ng/mL (≈ 0.716 µM)
- EC50 [7, 27]: 300 ng/mL (≈ 1.07 µM)
- EC50 (Cowpox virus (Brighton)): 8.43 µg/mL (≈ 30.2 µM)
- EC50 [8]: 0.16 µg/mL (≈ 0.573 µM)
- Toxicity MCC (microscopy), HSB-2 cells (HSB-2 cells): 19 µg/mL
- Toxicity MCC (microscopy), MOLT-3 cells (MOLT-3 cells): 32 µg/mL
- EC50 ([12]; 2 h, read-out: EC50 Vaccinia (Lederle strain), Treatment from 2 h till end of experiment): 3.98 µg/mL (≈ 14.3 µM)
- EC50 ([12]; read-out: EC50 Vaccinia (Lederle strain), Pretreatment (−16 hours)): 5 µg/mL (≈ 17.9 µM)
- EC50 ([12]; read-out: EC50 Vaccinia (Lederle strain), Treatment 2-4 hours): 20 µg/mL (≈ 71.6 µM)
- EC50 ([12]; read-out: EC50 Vaccinia (Lederle strain), Treatment 2-6 hours): 9.06 µg/mL (≈ 32.5 µM)
- EC50 ([12]; read-out: EC50 Vaccinia (Lederle strain), Treatment 2-8 hours): 10 µg/mL (≈ 35.8 µM)
